A short description of data set [1]: Partition coefficient (logP). The class given is physicochemical. As to conditions: octanol/water.
Data set [2] deals with GABA-A receptor; anion channel. Description: In vitro displacement of [3H]TBOB from Gamma-aminobutyric acid A (GABA-A) receptor of rat brain. A general note: In a radioligand displacement assay an active substance lowers the binding of a labelled ligand.

The term logP denotes a log measure of how a compound divides between an organic and an aqueous phase. A high value points to a more lipophilic compound. Consider `CC(C)(C)C1CSC(c2ccc(F)cc2)SC1` (stereo unspecified), for which, in data set [1], the log partition coefficient (logP) came to 4.97.

For orientation: Ki means the dissociation constant of the complex between target and ligand, obtained from inhibition or displacement. High values mean lower affinity, low ones higher affinity. With `CC(C)(C)C1CS(=O)(=O)C(C)(c2ccc(I)cc2)S(=O)(=O)C1` (stereo unspecified), the logP in data set [1] was 1.95. In data set [2], this compound gave a Ki of 105 nM.

In data set [1], `CC(C)(C)C1CS(=O)(=O)C(c2ccc(F)cc2)S(=O)(=O)C1` (stereo unspecified) yielded a logP of 0.43. The same compound registered a Ki in data set [2] of 180 nM.

As for `CC1(c2ccc(C#N)cc2)SCC(C(C)(C)C)CS1` (stereo unspecified), the logP in data set [1] stood at 4.89.

In data set [1], `CC(C)(C)C1CS(=O)(=O)C(C)(c2ccc(C#N)cc2)S(=O)(=O)C1` (stereo unspecified) had a log partition coefficient (logP) of 0.351. In data set [2], this compound registered a Ki of 87 nM.

In data set [1], `CC(C)(C)C1CSC(c2ccc(C#N)cc2)SC1` (stereo unspecified) yielded a logP of 4.38. The compound further showed a Ki in data set [2] of 240 nM.

Compound `C#Cc1ccc(C2SCC(C(C)(C)C)CS2)cc1` (stereo unspecified) had a logP in data set [1] of 4.96. This compound also had a Ki in data set [2] of 85 nM.

The compound `CC1(c2ccc(I)cc2)SCC(C(C)(C)C)CS1` (stereo unspecified) gave a logP in data set [1] of 6.5. In data set [2], this compound yielded a Ki of 1900 nM.

`CC(C)(C)[C@H]1CS(=O)(=O)[C@@](C)(c2ccc(C#N)cc2)S(=O)(=O)C1` (stereo in doubt; 9a) gave a Ki in data set [2] of 200 nM.

Compound `CC(C)(C)[C@H]1CS(=O)(=O)[C@@](C)(c2ccc(C#N)cc2)S(=O)(=O)C1` (stereo in doubt; 9b) yielded a Ki in data set [2] of 41 nM.

The record behind these values is ChEMBL document CHEMBL1128435, “Synthesis of carbon-11-, fluorine-18-, and iodine-125-labeled GABAA-gated chloride ion channel blockers: substituted 5-tert-butyl-2-phenyl-1,3-dithianes and -dithiane oxides” (J Med Chem, 1995).
